Earlier results on 1 molecule are cited in patent US20250057824A1, “NOSE-TO-BRAIN DELIVERY FORMULATION OF NIMODIPINE, PREPARATION AND USE” (Nasal-Phyto (Shanghai) Pharmaceutical Technology Co., Ltd., priority 2023, published 2025).

In brackets after ≈: the same amount, converted by molar mass.

As for `COCCOC(=O)C1=C(C)NC(C)=C(C(=O)OC(C)C)C1c1cccc([N+](=O)[O-])c1` (stereo not shown) [Nimodipine], the solubility in water was 2 µg/mL (≈ 4.78 µM).
